# Data as given in ChEMBL document CHEMBL1201862, “PubChem BioAssay data set” (2004).
# The source made the active and inactive calls.
# Key:
# Melanocortin receptor 4 = Melanocortin receptor 4 (Homo sapiens, UniProt P32245); assay type: functional, cell-based;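 note: Cell-based assay with luminescence read-out, confirmatory dose-response testing for agonist activity of biased ligands at MC4R; human U2OS cells with tagged receptor and beta-arrestin; potency of agonists that increase receptor coupling to beta-arrestin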
# Melanocortin receptor 4, sequence (P32245 whole entry): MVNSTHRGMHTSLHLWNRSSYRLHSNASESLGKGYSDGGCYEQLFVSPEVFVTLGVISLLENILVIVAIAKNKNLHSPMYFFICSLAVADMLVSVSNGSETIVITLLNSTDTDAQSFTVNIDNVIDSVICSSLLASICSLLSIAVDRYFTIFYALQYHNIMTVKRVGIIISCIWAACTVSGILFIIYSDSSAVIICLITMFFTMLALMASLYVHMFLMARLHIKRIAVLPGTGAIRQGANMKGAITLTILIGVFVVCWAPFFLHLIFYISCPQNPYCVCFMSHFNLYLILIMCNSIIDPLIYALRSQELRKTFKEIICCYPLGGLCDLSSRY
# [1] = biological target: T1, Apoptotic protease-activating factor 1 (Homo sapiens, UniProt O14727); experiment: SAR analysis of small molecule Activators of Apaf-1 in a Fluorescent assay.; assay type: functional; settings: read-out: EC50_Mean;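 note: caspase-3 cleavage of fluorogenic Rh110 DEVD substrate downstream of apoptosome activation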
# T1 sequence (O14727 whole entry): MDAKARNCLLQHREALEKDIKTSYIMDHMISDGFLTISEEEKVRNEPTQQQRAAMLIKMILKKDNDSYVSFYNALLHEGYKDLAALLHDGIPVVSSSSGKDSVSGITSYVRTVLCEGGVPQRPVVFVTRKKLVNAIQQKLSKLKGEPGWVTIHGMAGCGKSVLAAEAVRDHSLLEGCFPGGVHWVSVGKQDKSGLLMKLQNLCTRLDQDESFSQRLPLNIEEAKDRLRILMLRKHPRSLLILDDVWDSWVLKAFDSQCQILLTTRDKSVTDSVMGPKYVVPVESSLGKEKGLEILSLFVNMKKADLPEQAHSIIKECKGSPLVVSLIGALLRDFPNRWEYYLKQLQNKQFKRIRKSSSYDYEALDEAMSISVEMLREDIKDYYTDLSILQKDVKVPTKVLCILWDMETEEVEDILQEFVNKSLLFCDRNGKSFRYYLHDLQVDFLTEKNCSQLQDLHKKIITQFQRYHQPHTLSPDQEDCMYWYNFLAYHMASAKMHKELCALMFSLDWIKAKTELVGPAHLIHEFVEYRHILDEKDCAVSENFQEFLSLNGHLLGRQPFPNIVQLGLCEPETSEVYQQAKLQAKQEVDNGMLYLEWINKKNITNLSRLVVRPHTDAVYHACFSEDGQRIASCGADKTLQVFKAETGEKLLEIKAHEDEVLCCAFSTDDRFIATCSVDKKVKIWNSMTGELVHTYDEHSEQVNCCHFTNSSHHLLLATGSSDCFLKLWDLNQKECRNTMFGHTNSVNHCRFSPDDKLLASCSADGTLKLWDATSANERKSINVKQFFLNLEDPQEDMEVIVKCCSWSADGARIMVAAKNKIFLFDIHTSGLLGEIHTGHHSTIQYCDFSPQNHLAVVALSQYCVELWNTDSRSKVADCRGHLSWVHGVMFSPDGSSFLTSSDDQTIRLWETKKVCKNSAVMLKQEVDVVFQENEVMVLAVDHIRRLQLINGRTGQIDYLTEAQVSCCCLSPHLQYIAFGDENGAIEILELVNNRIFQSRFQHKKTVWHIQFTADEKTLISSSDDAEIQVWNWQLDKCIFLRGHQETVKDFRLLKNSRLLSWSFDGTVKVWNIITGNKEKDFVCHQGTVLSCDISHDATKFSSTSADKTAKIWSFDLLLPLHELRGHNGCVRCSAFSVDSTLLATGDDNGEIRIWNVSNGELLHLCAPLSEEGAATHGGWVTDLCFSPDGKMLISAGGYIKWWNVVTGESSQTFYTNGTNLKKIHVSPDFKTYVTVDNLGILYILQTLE
# [2] = biological target: T2, Aryl hydrocarbon receptor (Homo sapiens, UniProt P35869); experiment: Luminescence-based cell-based high throughput dose response assay for activators of the Aryl Hydrocarbon Receptor (AHR). [Related pubchem assays: 2796 (Primary screen (AHR activators in singlicate)), 2845 (Confirmation screen (AHR activators in triplicate)), 434939 (Counterscreen (PXR activators in triplicate)), 2804 (Summary (AHR activators))]; assay type: ADME
# T2 sequence (P35869 whole entry): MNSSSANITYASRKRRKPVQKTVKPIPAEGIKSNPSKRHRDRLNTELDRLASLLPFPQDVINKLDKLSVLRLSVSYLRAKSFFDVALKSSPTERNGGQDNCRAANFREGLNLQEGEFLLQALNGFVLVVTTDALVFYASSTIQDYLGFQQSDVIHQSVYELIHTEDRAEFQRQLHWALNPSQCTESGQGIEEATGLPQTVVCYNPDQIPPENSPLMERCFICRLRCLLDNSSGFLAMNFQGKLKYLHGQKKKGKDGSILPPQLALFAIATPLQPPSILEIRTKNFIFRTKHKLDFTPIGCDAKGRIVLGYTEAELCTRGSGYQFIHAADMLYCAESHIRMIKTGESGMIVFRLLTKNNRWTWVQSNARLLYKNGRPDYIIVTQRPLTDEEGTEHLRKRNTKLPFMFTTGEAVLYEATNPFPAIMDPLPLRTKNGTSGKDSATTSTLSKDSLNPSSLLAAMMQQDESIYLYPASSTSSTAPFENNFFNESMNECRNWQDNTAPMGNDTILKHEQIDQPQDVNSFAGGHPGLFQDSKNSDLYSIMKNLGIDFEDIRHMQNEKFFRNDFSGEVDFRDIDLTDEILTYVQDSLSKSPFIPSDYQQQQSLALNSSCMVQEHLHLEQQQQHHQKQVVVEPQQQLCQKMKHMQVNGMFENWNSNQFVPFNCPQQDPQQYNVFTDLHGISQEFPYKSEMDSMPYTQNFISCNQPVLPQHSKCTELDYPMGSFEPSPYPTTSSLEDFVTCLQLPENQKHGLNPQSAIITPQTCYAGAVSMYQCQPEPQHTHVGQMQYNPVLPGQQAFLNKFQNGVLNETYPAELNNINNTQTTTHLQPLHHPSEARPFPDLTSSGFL
# [3] = biological target: T3, Replicative DNA helicase DnaB (Mycobacterium tuberculosis, UniProt P9WMR3); experiment: DnaB intein splicing inhibitors, dose response, biochemical, cell-free fluorescence (AID 449749); assay type: functional
# T3 sequence (P9WMR3 whole entry): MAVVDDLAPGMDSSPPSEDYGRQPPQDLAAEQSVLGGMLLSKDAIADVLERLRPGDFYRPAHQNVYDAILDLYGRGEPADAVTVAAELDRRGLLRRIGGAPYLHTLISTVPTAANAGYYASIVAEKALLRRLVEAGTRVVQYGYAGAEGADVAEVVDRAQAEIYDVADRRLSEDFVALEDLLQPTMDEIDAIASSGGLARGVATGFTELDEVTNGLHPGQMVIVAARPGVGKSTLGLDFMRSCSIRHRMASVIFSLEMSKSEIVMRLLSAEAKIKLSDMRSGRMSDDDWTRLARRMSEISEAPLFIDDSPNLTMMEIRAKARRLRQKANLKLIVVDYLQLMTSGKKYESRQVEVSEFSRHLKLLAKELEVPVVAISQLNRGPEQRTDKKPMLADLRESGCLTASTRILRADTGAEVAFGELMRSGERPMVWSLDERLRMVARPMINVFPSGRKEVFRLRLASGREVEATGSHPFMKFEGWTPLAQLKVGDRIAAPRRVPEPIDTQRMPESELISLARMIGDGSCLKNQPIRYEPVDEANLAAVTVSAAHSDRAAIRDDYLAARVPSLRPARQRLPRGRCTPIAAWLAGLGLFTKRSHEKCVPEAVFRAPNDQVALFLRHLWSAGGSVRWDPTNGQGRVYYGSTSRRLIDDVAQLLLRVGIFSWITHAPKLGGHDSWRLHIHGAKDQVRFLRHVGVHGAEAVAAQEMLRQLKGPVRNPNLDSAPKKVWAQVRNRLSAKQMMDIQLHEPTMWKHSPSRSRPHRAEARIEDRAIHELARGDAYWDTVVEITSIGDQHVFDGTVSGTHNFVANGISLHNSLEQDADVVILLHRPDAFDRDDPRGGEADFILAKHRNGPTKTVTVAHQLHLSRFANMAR
# Protein RecA = biological target: T4, Protein RecA (Mycobacterium tuberculosis, UniProt P9WHJ3); experiment: Fluorescence Cell-Free Homogeneous Dose Retest to Identify Inhibitors of RecA-Intein Splicing Activity. [Related pubchem assays (depositor defined):AID2097, AID2223, AID489010, AID492950]; assay type: functional
# T4 sequence (P9WHJ3 whole entry): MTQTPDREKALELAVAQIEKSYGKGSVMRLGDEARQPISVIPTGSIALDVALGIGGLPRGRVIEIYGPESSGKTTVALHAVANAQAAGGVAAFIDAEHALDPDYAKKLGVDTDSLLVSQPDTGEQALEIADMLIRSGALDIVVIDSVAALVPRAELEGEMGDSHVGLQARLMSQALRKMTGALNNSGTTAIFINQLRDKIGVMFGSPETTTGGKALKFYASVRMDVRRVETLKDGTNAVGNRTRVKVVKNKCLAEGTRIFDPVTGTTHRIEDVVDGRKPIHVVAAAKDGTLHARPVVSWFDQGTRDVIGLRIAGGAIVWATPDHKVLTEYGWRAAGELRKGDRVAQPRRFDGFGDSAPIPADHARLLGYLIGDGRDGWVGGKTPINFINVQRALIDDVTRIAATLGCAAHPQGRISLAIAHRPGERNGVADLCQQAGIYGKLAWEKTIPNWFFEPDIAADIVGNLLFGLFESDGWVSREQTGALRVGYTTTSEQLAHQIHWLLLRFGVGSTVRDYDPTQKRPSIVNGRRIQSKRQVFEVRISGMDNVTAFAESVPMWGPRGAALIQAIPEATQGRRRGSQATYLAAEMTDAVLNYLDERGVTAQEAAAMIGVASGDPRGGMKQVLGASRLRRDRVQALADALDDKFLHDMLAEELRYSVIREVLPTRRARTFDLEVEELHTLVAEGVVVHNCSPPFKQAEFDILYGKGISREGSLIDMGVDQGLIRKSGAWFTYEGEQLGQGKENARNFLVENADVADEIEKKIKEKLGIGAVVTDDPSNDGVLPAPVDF
# [4] = biological target: T5, Mitochondrial peptide methionine sulfoxide reductase (Bos taurus, UniProt P54149); experiment: Absorbance-based biochemical high throughput dose response assay for activators of Methionine sulfoxide reductase A (MsrA).; assay type: functional
# T5 sequence (P54149 whole entry): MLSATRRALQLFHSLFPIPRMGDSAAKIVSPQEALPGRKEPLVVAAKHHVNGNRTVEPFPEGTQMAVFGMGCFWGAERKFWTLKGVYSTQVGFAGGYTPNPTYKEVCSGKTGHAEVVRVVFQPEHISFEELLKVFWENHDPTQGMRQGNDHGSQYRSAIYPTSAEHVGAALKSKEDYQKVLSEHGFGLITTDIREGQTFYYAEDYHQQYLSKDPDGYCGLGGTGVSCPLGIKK
# [5] = biological target: T5, Mitochondrial peptide methionine sulfoxide reductase; assay type: functional
# 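Throughout, for IC50: absorbance read-out, biochemical high-throughput dose-response screen for MsrA inhibitors, confirmatory; recombinant bovine MsrA coupled to E. coli TrxB with NADPH and selenocystamine; potency is for inhibitors of MsrA activity on DMSO substrate.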
smiles,measurement,setting,value
COc1ccc(NC(=O)Nc2nc(C(N)Cc3ccc(C(F)(F)F)cc3)cs2)cc1 (configuration not stated),EC50,Melanocortin receptor 4,> 89.2 µM (inactive)
Cc1cccc(C)c1N1C(=O)CC2(CC(c3ccc4c(c3)OCCO4)=NO2)C1=O (configuration not stated),EC50,[1],> 100 µM (inactive)
O=C1/C(=N/c2ccc(O)cc2)C(Cl)=C(O)c2ccccc21,EC50,[2],> 1.13 µM (active)
same,AC50,[3],3.36 µM (active)
same,EC50,Protein RecA,3.48 µM (active)
same,EC50,[4],> 104 µM (inactive)
same,IC50,[5],155 µM (inactive)
